Measured values from US6497862B2, “Composition for inhibiting body odor and uses thereof” (Kabushiki Kaisha Hayashibara, priority 2000, dated 2002).

Tests used:
[1] = system: healthy volunteer; experiment: Test on volunteer: volatile aldehydes collected from worn underwear (Experiment 7); type: in vivo, human
Experimental: The influence of saccharides on the formation of body odor from living bodies by applying trehalose to a healthy volunteer, under the following schedule: After soaking a towel in a 2% (w/w) aqueous trehalose solution, which had been boiled for five minutes and then cooled to about 40° C., at 10:30 a.m. on the day of starting a test, the volunteer as in a test system was allowed to wipe their whole body with the towel squeezed roughly to apply trehalose on the body surface, and made them to spend their daily life as usual after the drying of the applied aqueous trehalose solution. Thereafter, they were made to take a bath at 9 p.m. as usual and allowed to sufficiently wash their whole body including their hair. Just after bathing, a fresh preparation of aqueous trehalose solution was applied on the body surface similarly as above, then after drying the aqueous trehalose solution, they were made to wear an underwear and allowed to spend their daily life. At 5:30 p.m. on the next day after the initiation of the test, their worn underwear was collected, and tested for the presence and the content of volatile aldehydes in the underwear by the following procedures. As a control, on other day, the volunteer was allowed to wear a similar underwear as used in the test system according to the above test system except for replacing the aqueous trehalose solution with water, and then made them to spend their daily life, followed by collecting their underwear and analyzing them by the following procedures similarly as above.
As shown schematically in FIG. 1, an underwear 5 worn by the volunteer in each system was sealed after placed in a sealing vessel 1 immediately after the collection, and the gas in the sealing vessel 1 was pumped by an air pump 3 into a cartridge 4, “Superclean LpDNPH Cartridge”, with a lot No. LpDNPH S10L commercialized by Supelco Inc., Tokyo, Japan, to collect volatile aldehydes through a pipe 2 at ambient temperature of about 20° C., while the gas was continuously circulated through the sealed vessel 1 through the pipe 2 for one hour to collect in the cartridge 4 volatile aldehydes, as DNPH (dinitrophenylhydrazine), contained in the underwear 5. Thereafter, the cartridge 4 was removed and received two milliliters of acetonitrile by passing therethrough, followed by collecting an eluate from the cartridge 4. The collected eluate was analyzed on GC as follows.
“GAS CHROMATOGRAPH GC-14B”, as a GC apparatus produced by Shimadzu Corporation, Tokyo, Japan; and “TC-Wax CAPILLARY COLUMN”, a column for analysis, having 0.53 mm in inner diameter, 25 m in length, and 0.5 μm in thickness, produced by GL Sciences, Inc., Tokyo, Japan, were used. Helium gas was used as a carrier gas at a flow rate of 1 ml/min, and the temperature for a sample injection part was set to 240° C., while keeping a column thermostatic bath temperature at 50° C. for five minutes and then increasing the temperature up to 200° C. at a rate of 5° C./min. Using two microliters of an analysis sample as an injection volume, 1/30 volume of the injected sample was analyzed (split 1:30) by passing through the column for analysis while controlling the flow rate of the carrier gas at the sample injection part and using a hydrogen flame ionization detector for detection. As standard specimens, DNPH derivatives for each 2-nonenal, 2-octenal, hexanal, and nonanal were used and separately analyzed on GC under the conditions shown above. Based on the gas chromatograms from the above analyses, the content (μg) of respective 2-nonenal, 2-octenal. hexanal, and nonanal, collected form the underwears in the test system and control, was determined.

[2] = Panel test of smell, 9-hexadecanoic acid at 37° C. (Experiment 6); set-up: key: +++: the same or higher level of odor; ++: slightly lower level of odor; +: clearly lower level of odor than that of the control system; −: odorless; details: 3-days of standing, 37° C., 9,000 lux
Excerpt: Upon the HSG samples, the level of a body-odor-like smell was examined on a panel test consisting of six professional panels; the panels directly smelled the samples from each glass vial and judged the level of the smells for each samples with test saccharides based on the following four ranks, i.e., the same or higher level of odor (+++), slightly lower level of odor (++), clearly lower level of odor (+), and odorless (−) as compared with the control system. Summing up the data from the panels, the samples tested were totally evaluated.
One hundred milligrams of 9-hexadecanoic acid as a fatty acid, 500 mg of a cellulose powder, and 1.25 ml of 0.12 M phosphate buffer (pH 6.0) were placed in a 20-ml glass vial. To the glass vial was added 100 mg of either of trehalose, maltitol and sucrose as a test saccharide, followed by sealing with a butyl rubber cap for use as a test system. As a control system, there provided a glass vial with no test saccharide that differed from the test systems only in this point. In both the test- and control-systems, they were respectively provided in doublet.
These glass vials were allowed to stand in a 37° C.-thermostatic-bath under the irradiation of 9,000 lux by a fluorescent lamp. […] After the collection of HSG, the smell from glass vials was evaluated by panel test in accordance with the method in Experiment 2.

With `OC[C@H]1O[C@H](O[C@H]2O[C@H](CO)[C@@H](O)[C@H](O)[C@H]2O)[C@H](O)[C@@H](O)[C@@H]1O` [Trehalose, trehalose] the “Content of volatile aldehydes collected from underwear, 2-Nonenal” value ([1]; 2% (w/w) aqueous trehalose solution applied on the body surface, control 7.05) was 3.72 µg, the “Content of volatile aldehydes collected from underwear, Hexanal” value ([1]; 2% (w/w) aqueous trehalose solution on the body surface, control 5.39, * means no detection) was “undetectable level” and the “Content of volatile aldehydes collected from underwear, 2-Octenal” value ([1]; 2% (w/w) aqueous trehalose solution on the body surface, control 8.61, * means no detection) was “undetectable level”. The “Content of volatile aldehydes collected from underwear, Nonanal” value ([1]; 2% (w/w) aqueous trehalose solution on the body surface, control 10.93, * means no detection) was “undetectable level”, the “2-nonenal in underwear, level relative to control” value ([1]; trehalose applied on the body surface versus water control) was “about 53%” and the “Evaluation of panel test” value [2] was “−”.
For `OC[C@@H](O)[C@@H](O[C@H]1O[C@H](CO)[C@@H](O)[C@H](O)[C@H]1O)[C@H](O)[C@@H](O)CO` [Maltitol, maltitol], the “formation of body odor” value ([1]; experiment using maltitol in place of trehalose) was “well inhibits the formation of body odor similarly as trehalose” and the “Evaluation of panel test” value [2] was “−”.
